From patent US10208074B2, “Pyrazole compounds and method for making and using the compounds” (Rigel Pharmaceuticals, Inc., priority 2015, dated 2019) come the findings set out here.

For assay [1], the system named is IL-23 (p19/p40). Nature of the assay: IL23-p19 ELISA, Dendritic, LPS (compound screening using DC cells). Format: cell-based, Human. The settings on record: PBMC-derived DC cells, IFNγ primed, LPS 1 μg/ml, 18 hours, 10 pt, read-out: IL23-p19 ELISA, Dendritic, LPS, 10 pt, EC50. The procedure, abridged:
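IL-23 in supernatants quantified by sandwich ELISA (anti-p19 capture, biotinylated anti-p40 detection, chemiluminescent readout) after 18 h LPS (1 μg/ml) stimulation. Cells were monocyte-derived DCs (GM-CSF/IL-4, 7 d), IFNγ-primed 24 h and given compound 1 h before LPS; viability by CellTiter Glo.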

Assay [2] deals with IL-23p19. Nature of the assay: LPS induced IL23p19 in THP-1 cells (with IFNγ primed) assay. In kind it is cell-based, Human. The conditions noted are these: THP-1 cells, IFNγ primed, LPS 1 ug/mL, 18 hours, 10 pt, read-out: IL23-p19 ELISA, THP1-IFNy, LPS, 10 pt EC50. The procedure, abridged: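 Readout is secreted IL-23p19, quantified by chemiluminescent sandwich ELISA after 18 h LPS (1 ug/mL) stimulation of THP-1 cells that had been IFNγ-primed (50 ng/mL, ~18 h) and given compound 1 h beforehand at 37 °C. EC50 derived by curve fit; cytotoxicity tracked with Cell Titer Glo.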
(In an ELISA, binding on a coated surface is turned into a signal by an enzyme label.)

SMILES strings stand for the structures. Structures can show the parent of a compound that is named as a salt. Where two headings read alike, the source gives them in different places.

For orientation: EC50 means the midpoint of the concentration-response curve. Consider `Cn1cc(NC(=O)c2ccc(-c3cnn(COP(=O)(O)O)c3)o2)c(-c2ccccn2)n1` [Compound I-82, Sodium [4-{5-((1-Methyl-3-(pyridine-2-yl)-1H-pyrazol-4-yl)carbamoyl)furan-2-yl}-1H-pyrazol-1-yl]methyl phosphate], for which the results for the concentration giving a half-maximal response (EC50) in assay [1] (phosphate) and in assay [2] (phosphate) were 780 nM and 205 nM, respectively.
Turning to `O=C(Nc1cn([C@H]2C[C@@H](OCC(F)(F)F)C2)nc1-c1ncccc1F)c1ccc(-c2cn[nH]c2)o1` [Compound I-152, N-(3-(3-fluoropyridin-2-yl)-1-((1s,3s)-3-(2,2,2-trifluoroethoxy)cyclobutyl)-1H-pyrazol-4-yl)-5-(1H-pyrazol-4-yl)furan-2-carboxamide formate], the concentration giving a half-maximal response (EC50) in assay [1] (Homo sapiens, 18 h) was 71.6 nM; in assay [2] (Homo sapiens, THP-1, 18 h), 31.9 nM.
With `CCO[C@H]1C[C@@H](n2cc(NC(=O)c3csc(-c4cn[nH]c4F)n3)c(-c3ccccn3)n2)C1` [II-72, N-(1-((1s,3s)-3-ethoxycyclobutyl)-3-(pyridin-2-yl)-1H-pyrazol-4-yl)-2-(5-fluoro-1H-pyrazol-4-yl)thiazole-4-carboxamide], the EC50 worked out at 140 nM in assay [1] and 1140 nM in assay [2].
For `CCO[C@H]1C[C@@H](n2cc(NC(=O)c3ccc(-c4cn[nH]c4)o3)c(-c3cccc(F)n3)n2)C1` [Compound I-144, N-(1-((1s,3s)-3-ethoxycyclobutyl)-3-(6-fluoropyridin-2-yl)-1H-pyrazol-4-yl)-5-(1H-pyrazol-4-yl)furan-2-carboxamide formate], the EC50 amounted to 34.3 nM in assay [1] (Homo sapiens, 18 h) and 78 nM in assay [2] (Homo sapiens, THP-1, 18 h).
For the compound `CC(C)(C)OC(=O)N1CC(n2cc(NC(=O)c3ccc(-c4cn[nH]c4)o3)c(-c3ccccn3)n2)C1` [Compound I-70, tert-Butyl-3-[4-{5-(1H-pyrazole-4-yl)furan-2-carboxamido}-3-(pyridine-2-yl)-1H-pyrazol-1-yl]azetidine-1-carboxylate, formate salt], the 50% effective concentration (EC50) in assay [1] (formate salt) turned out to be 28.3 nM; in assay [2] (formate salt) it was 366 nM.
As to `CCO[C@H]1C[C@@H](n2cc(NC(=O)c3csc(-c4cn[nH]c4)n3)c(-c3cccc(F)n3)n2)C1` [II-160, N-(1-((cis)-3-ethoxycyclobutyl)-3-(6-fluoropyridin-2-yl)-1H-pyrazol-4-yl)-2-(1H-pyrazol-4-yl)thiazole-4-carboxamide], the concentration for a half-maximal effect (EC50) in assay [1] (Homo sapiens, 18 h) worked out at 38.5 nM; in assay [2] (Homo sapiens, THP-1, 18 h), 26.7 nM.
For `CN(C)[C@H]1C[C@@H](n2cc(NC(=O)c3ccc(-c4cn[nH]c4)o3)c(-c3ccccn3)n2)C1` [Compound I-34, N-(1-((1s,3s)-3-(dimethylamino)cyclobutyl)-3-(pyridin-2-yl)-1H-pyrazol-4-yl)-5-(1H-pyrazol-4-yl)furan-2-carboxamide formate] the same measures were 14.4 nM and 13.8 nM.
As for `Cn1cc(NC(=O)c2csc(-c3cnn(COP(=O)(O)O)c3)n2)c(-c2ccccn2)n1` [II-36, Sodium (4-(4-((1-methyl-3-(pyridin-2-yl)-1H-pyrazol-4-yl)carbamoyl)thiazol-2-yl)-1H-pyrazol-1-yl)methyl phosphate], the EC50 in assay [1] (phosphate) turned out to be 241 nM; in assay [2] (phosphate) it was 165 nM.
On to `CCO[C@H]1C[C@@H](n2cc(NC(=O)c3csc(-c4cnn(C)c4)n3)c(-c3ccccn3)n2)C1` [II-13, N-(1-((1,3-cis)-3-ethoxycyclobutyl)-3-(pyridin-2-yl)-1H-pyrazol-4-yl)-2-(1-methyl-1H-pyrazol-4-yl)thiazole-4-carboxamide], for which the 50% effective concentration (EC50) in assay [1] (Homo sapiens, 18 h) came to 10400 nM; in assay [2] (Homo sapiens, THP-1, 18 h), 4800 nM.
Take `COc1ccc(Cn2cc(-c3nc(C(=O)Nc4cn(CC(O)(C(F)(F)F)C(F)(F)F)nc4-c4ccccn4)cs3)cn2)cc1` [II-107, 2-(1-(4-methoxybenzyl)-1H-pyrazol-4-yl)-N-(3-(pyridin-2-yl)-1-(3,3,3-trifluoro-2-hydroxy-2-(trifluoromethyl)propyl)-1H-pyrazol-4-yl)thiazole-4-carboxamide]: the EC50 in assay [1] (Homo sapiens, 18 h) came to 2310 nM; in assay [2] (Homo sapiens, THP-1, 18 h) it was 1500 nM.
For `COCCn1cc(NC(=O)c2ccc(-c3cnn(C(=O)[C@@H](NC(=O)OC(C)(C)C)C(C)C)c3)o2)c(-c2ccccn2)n1` [Compound I-20, tert-butyl (S)-(1-(4-(5-((1-(2-methoxyethyl)-3-(pyridin-2-yl)-1H-pyrazol-4-yl)carbamoyl)furan-2-yl)-1H-pyrazol-1-yl)-3-methyl-1-oxobutan-2-yl)carbamate] the same measures were 194 nM and 167 nM.
Take `CCO[C@H]1CC[C@H](n2cc(NC(=O)c3csc(-c4cn[nH]c4)n3)c(-c3ncc(F)cc3F)n2)CC1` [II-180, N-(3-(3,5-difluoropyridin-2-yl)-1-((1r,4r)-4-ethoxycyclohexyl)-1H-pyrazol-4-yl)-2-(1H-pyrazol-4-yl)thiazole-4-carboxamide]: the concentration giving a half-maximal response (EC50) turned out to be 263 nM in assay [1] (Homo sapiens, 18 h) and 80.2 nM in assay [2] (Homo sapiens, THP-1, 18 h).
On to `CCN(CC)CCn1cc(NC(=O)c2csc(-c3cn[nH]c3)n2)c(-c2ccccn2)n1` [II-117, N-(1-(2-(diethylamino)ethyl)-3-(pyridin-2-yl)-1H-pyrazol-4-yl)-2-(1H-pyrazol-4-yl)thiazole-4-carboxamide], for which the concentration for a half-maximal effect (EC50) in assay [1] (Homo sapiens, 18 h) stood at 106 nM; in assay [2], 56.6 nM.
As for `CCCC(=O)N1CC(n2cc(NC(=O)c3ccc(-c4cn[nH]c4)o3)c(-c3ccccn3)n2)C1` [Compound I-99, N-[1-{1-Butyrylazetidin-3-yl}-3-(pyridine-2-yl)-1H-pyrazol-4-yl]-5-(1H-pyrazol-4-yl)furan-2-carboxamide, formate salt], the concentration giving a half-maximal response (EC50) in assay [1] (Homo sapiens, 18 h) was found to be 15.6 nM; in assay [2] (Homo sapiens, THP-1, 18 h), 18 nM.
With `Cn1cc(-c2ccc(C(=O)Nc3cn(C4COC4)nc3-c3ccccn3)o2)cn1` [Compound I-26, 5-(1-methyl-1H-pyrazol-4-yl)-N-(1-(oxetan-3-yl)-3-(pyridin-2-yl)-1H-pyrazol-4-yl)furan-2-carboxamide], the concentration for a half-maximal effect (EC50) was found to be 276 nM in assay [1] (Homo sapiens, 18 h) and 1320 nM in assay [2] (Homo sapiens, THP-1, 18 h).
`O=C(Nc1cn(C2CNC2)nc1-c1ccccn1)c1ccc(-c2cn[nH]c2)o1` [Compound I-78, N-{1-(Azetidin-3-yl)-3-(pyridine-2-yl)-1H-pyrazol-4-yl}-5-(1H-pyrazol-4-yl)furan-2-carboxamide, TFA salt]: the EC50 in assay [1] (Homo sapiens, 18 h) was 105 nM; in assay [2] (Homo sapiens, THP-1, 18 h) it was 78.4 nM.
As for `CCN(CC)C(=O)n1cc(NC(=O)c2csc(-c3cn[nH]c3)n2)c(-c2ccccn2)n1` [II-128, N-(1-(diethylcarbamoyl)-3-(pyridin-2-yl)-1H-pyrazol-4-yl)-2-(1H-pyrazol-4-yl)thiazole-4-carboxamide], the 50% effective concentration (EC50) in assay [1] (Homo sapiens, 18 h) was 2480 nM; in assay [2] (Homo sapiens, THP-1, 18 h), 1150 nM.
With `COCCn1cc(NC(=O)c2ccc(-c3cnn(C(=O)OC(C)OC(=O)C(C)C)c3)o2)c(-c2ccccn2)n1` (centres unmarked) [Compound I-19, 1-(isobutyryloxy)ethyl 4-(5-((1-(2-methoxyethyl)-3-(pyridin-2-yl)-1H-pyrazol-4-yl)carbamoyl)furan-2-yl)-1H-pyrazole-1-carboxylate], the EC50 in assay [1] (Homo sapiens, 18 h) was determined as 337 nM; in assay [2] (Homo sapiens, THP-1, 18 h), 300 nM.
Taken in the same sequence, the figures for `CCO[C@H]1C[C@@H](n2cc(NC(=O)c3csc(-c4cn[nH]c4)n3)c(-c3cccc(C(F)(F)F)n3)n2)C1` [II-90, N-(1-((1,3-cis)-3-ethoxycyclobutyl)-3-(6-(trifluoromethyl)pyridin-2-yl)-1H-pyrazol-4-yl)-2-(1H-pyrazol-4-yl)thiazole-4-carboxamide] were 218 nM and 176 nM.
Consider `CCO[C@H]1C[C@@H](n2cc(NC(=O)c3csc(-c4cn[nH]c4)n3)c(-c3ncccc3F)n2)C1` [II-157, N-(1-((cis)-3-ethoxycyclobutyl)-3-(3-fluoropyridin-2-yl)-1H-pyrazol-4-yl)-2-(1H-pyrazol-4-yl)thiazole-4-carboxamide], for which the half-maximal effective concentration (EC50) is 564 nM in assay [1] (Homo sapiens, 18 h) and 61.5 nM in assay [2] (Homo sapiens, THP-1, 18 h).
For `CCOCCn1cc(NC(=O)c2ccc(-c3cn[nH]c3)o2)c(-c2ccccn2)n1` [Compound I-37, N-(1-(2-ethoxyethyl)-3-(pyridin-2-yl)-1H-pyrazol-4-yl)-5-(1H-pyrazol-4-yl)furan-2-carboxamide formate], the half-maximal effective concentration (EC50) in assay [1] (formate) turned out to be 17.4 nM; in assay [2] (Homo sapiens, THP-1, 18 h), 144 nM.
As to `CCO[C@H]1C[C@@H](n2cc(NC(=O)c3ccc(-c4cn[nH]c4)o3)c(-c3cccc(C(F)(F)F)n3)n2)C1` [Compound I-116, N-(1-((1s,3s)-3-ethoxycyclobutyl)-3-(6-(trifluoromethyl)pyridin-2-yl)-1H-pyrazol-4-yl)-5-(1H-pyrazol-4-yl)furan-2-carboxamide], the concentration giving a half-maximal response (EC50) is 218 nM in assay [1] (Homo sapiens, 18 h) and 226 nM in assay [2] (Homo sapiens, THP-1, 18 h).
